Measurements: patent US7019034B2, “Compositions and methods for reducing serum glucose and triglyceride levels in diabetic mammals” (Allergan, Inc., priority 2003, dated 2006)

Columns and labels:
[1] = molecular target: T1, RXRα (Homo sapiens, UniProt P19793); experiment: holoreceptor transactivation assay, RXRα; type: cell-based; details: number in brackets
T1 construct: expressed in transfected cells
T1 sequence (P19793 1-462): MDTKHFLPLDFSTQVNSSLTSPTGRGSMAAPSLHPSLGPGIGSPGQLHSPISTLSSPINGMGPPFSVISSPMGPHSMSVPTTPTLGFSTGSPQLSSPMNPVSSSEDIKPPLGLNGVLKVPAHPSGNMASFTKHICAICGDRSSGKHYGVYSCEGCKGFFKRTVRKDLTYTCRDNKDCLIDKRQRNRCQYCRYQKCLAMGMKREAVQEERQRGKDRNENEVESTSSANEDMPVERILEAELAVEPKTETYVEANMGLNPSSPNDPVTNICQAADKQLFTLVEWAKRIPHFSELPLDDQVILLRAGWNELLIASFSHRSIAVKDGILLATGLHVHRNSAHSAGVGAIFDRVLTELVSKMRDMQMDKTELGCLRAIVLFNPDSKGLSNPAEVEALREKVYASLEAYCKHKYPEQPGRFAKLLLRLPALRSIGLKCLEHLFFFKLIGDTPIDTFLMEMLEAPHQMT
Excerpt: A holoreceptor transactivation assay and a ligand binding assay which measure the antagonist/agonist like activity of the compounds of the invention, or their ability to bind to the several retinoid receptor subtypes, respectively, are described in published PCT Application No. WO WO93/11755 (particularly on pages 30–33 and 37–41) published on Jun. 24, 1993, the specification of which is also incorporated herein by reference. […] The results obtained in this assay are expressed in EC50 numbers, as they are also in the chimeric receptor transactivation assay. The results of the ligand binding assay are expressed in Ki numbers. (See Cheng et al. Biochemical Pharmacology Vol. 22 pp 3099–3108, expressly incorporated herein by reference.)
(§1) Particularly, the transactivation data pertaining to activation of the RAR receptors were obtained in the chimeric assay, and the transactivation data pertaining to the activation of RXR receptors were obtained in the holoreceptor assay.
(§2) In Table 1 NA stands for not active at all as an agonist. ND stands for not determined. The first row of numbers pertaining to each compound is the measured EC50 number. […] The third row of numbers pertaining to each compound is the binding Ki number.

[2] = molecular target: T2, RXRβ (UniProt P28704); experiment: holoreceptor transactivation assay, RXRβ; type: cell-based
T2 sequence (P28704 1-520): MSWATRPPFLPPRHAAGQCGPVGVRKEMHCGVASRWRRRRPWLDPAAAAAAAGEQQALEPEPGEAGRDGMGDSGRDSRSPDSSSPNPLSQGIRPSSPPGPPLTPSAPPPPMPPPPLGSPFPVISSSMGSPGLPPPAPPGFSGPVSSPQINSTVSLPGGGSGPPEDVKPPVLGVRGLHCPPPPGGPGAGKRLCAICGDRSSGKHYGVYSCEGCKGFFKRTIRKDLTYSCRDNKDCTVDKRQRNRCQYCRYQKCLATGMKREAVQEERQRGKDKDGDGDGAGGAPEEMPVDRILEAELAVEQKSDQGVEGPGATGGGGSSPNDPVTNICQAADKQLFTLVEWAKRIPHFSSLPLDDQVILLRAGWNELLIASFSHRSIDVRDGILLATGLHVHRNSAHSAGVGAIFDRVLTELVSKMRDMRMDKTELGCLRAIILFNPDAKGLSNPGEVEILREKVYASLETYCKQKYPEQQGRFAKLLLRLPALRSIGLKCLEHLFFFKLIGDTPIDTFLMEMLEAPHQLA
Excerpt: The results obtained in this assay are expressed in EC50 numbers, as they are also in the chimeric receptor transactivation assay. The results of the ligand binding assay are expressed in Ki numbers.
as §1, §2

[3] = tested on: diabetic db/db mice; experiment: serum glucose in diabetic db/db mice, 7 days oral dosing; type: in vivo; details: for Glucose: 10 mg/kg once daily oral gavage, mean +/- SD
Method: (§3) Effects of RXR agonists on serum glucose and triglyceride were studied in diabetic db/db mice. […] Briefly, animals were dosed once daily by oral gavage using corn oil vehicle for a period of 7 consecutive days. Serum samples were collected on day 1 (first day of dosing) and day 7 at hour 0 (immediately prior to dosing) and hour 3 (approximately 3 hours after dosing). Serum glucose and triglyceride levels of these samples were measured as described in the reference manuals: Glucose/HK. Boehringer Mannheim Corporation, 9115 Hague Road, Indianapolis, Ind., USA and Triglycerides/GPO. Roche Diagnostics Corporation, 9115 Hague Road, Indianapolis, Ind., USA, expressly incorporated herein. Only those animals with glucose levels of higher than 300 mg/dl at 0 hour on day 1 were considered as diabetic and included in data analysis.
(§4) A measured amount of dosing solution was withdrawn into a metal feeding tube attached to a marked syringe. Animals were restrained by grasping of their back skin while the feeding tube was gently inserted into their mouth and into esophagus. A fixed amount of the dosing solution was displaced into the esophagus/stomach of the animal by pushing the plunger of the syringe. Serum samples were collected from the retro-orbital sinus while the animals were anesthetized. These samples were analyzed by using commercially available kits from Boehringer Manheim for their glucose levels and Roche Diagnostics for their triglyceride levels in a Boehringer Manheim Hatachi Clinical Chemistry Analyzer.
(§5) For glucose assay, an enzymatic reaction using hexokinase and glucose-6-phosphodehydrogenase to catalyze glucose to gluconate-6phosphate and NADPH was employed. The amount of NADPH formed during these reactions was equivalent to the amount of glucose in the serum and was measured with a spectrophotometer. For triglycerides, a series of enzymatic reactions which included lipase, glycerol kinase and glycerol phosphate oxidase to formed dihydroacetone phosphate and peroxidase. The peroxidase produced catalyzed a reaction between peroxide and 4-aminophenazone and 4-chlorophenol in a Trinder reaction to generate a color change. This color change was measured by a spectrophotometer and reflected the amount of triglyceride in the sample.

[4] = tested on: diabetic db/db mice; experiment: serum triglycerides in diabetic db/db mice, 7 days oral dosing; type: in vivo; details: for Triglycerides: 10 mg/kg once daily oral gavage, mean +/- SD
Method: as §3, §4, §5

[5] = tested on: young db/db mice; experiment: serum thyroxine (T4) in young db/db mice, 14 days oral dosing; type: in vivo
Method: In another study the efficacy of RXR agonists in the prevention of diabetes was tested in young db/db mice. […] Serum samples were analyzed by using commercially available kits from Boehring Manheim for their thyroxine (T4) levels in a Boehringer Manheim Hatachi Clinical Chemistry Analyzer as described in the reference manual of Boehringer Mannheim Corporation, 9115 Hague Road, Indianapolis, Ind., USA, expressly incorporated herein.

[6] = Day 1, 0 hr (immediately prior to dosing)

## CC(/C=C/[C@@H]1C[C@]1(C)c1ccc2c(c1)C(C)(C)CCC2(C)C)=C\C(=O)O [Standard compound, (2E,4E,1′S,2′S)-3-methyl-5-[2′-methyl-2′-(5,5,8,8-tetramethyl-5,6,7,8-tetrahydro-naphthalen-2-yl)-cyclopropyl]-penta-2,4-dienoic acid, reference compound]
[1]
  RXR α efficacy in percentage as compared to the standard compound: 100%
[2]
  RXR β efficacy in percentage as compared to the standard compound: 0.4(100)1%
  efficacy in activating RXRβ compared with RXRα and RXRγ subtypes (in words): approximately equally efficacious in activating the RXRα, RXRβ and RXRγ subtypes
[3]; [6]
  Glucose: 501 ± 87 mg/dL
[3]; Day 1, 3 hr
  Glucose: 403 ± 86 mg/dL
[3]; Day 7, 0 hr
  Glucose: 367 ± 101 mg/dL
[3]; Day 7, 3 hr
  Glucose: 301 ± 40 mg/dL
[3]; mouse, in vivo
  effect on serum glucose in diabetic mouse (in words): capable of lowering serum glucose
[4]; [6]
  Triglycerides: 183 ± 50 mg/dL
[4]; Day 1, 3 hr
  Triglycerides: 220 ± 87 mg/dL
[4]; Day 7, 0 hr
  Triglycerides: 137 ± 32 mg/dL
[4]; mouse, in vivo
  effect on serum triglyceride (in words): induces hypertriglyceridemia
[5]; 5 mg/kg orally for 14 days, mean +/- SD (n = 7)
  Serum thyroxine: 0.83 ± 0.29 µg/dL
[5]; mouse, in vivo
  effect on serum T4 (in words): lowering serum T4
